We go through 5 molecules from article PMC7413254 (Nature Communications, 2020).

Test [1] deals with T1, PfCRT^3D7 in C2^GC03 parasites (Plasmodium falciparum, UniProt Q8IBZ9).
T1 construct: PfCRT also functions as a peptide transporter within its native environment of the DV membrane; expressed in transfected cells; host or cells: P. falciparum pfcrt transfectant line C2^GC03 (saponin-isolated trophozoites)
T1 sequence (Q8IBZ9 1-424): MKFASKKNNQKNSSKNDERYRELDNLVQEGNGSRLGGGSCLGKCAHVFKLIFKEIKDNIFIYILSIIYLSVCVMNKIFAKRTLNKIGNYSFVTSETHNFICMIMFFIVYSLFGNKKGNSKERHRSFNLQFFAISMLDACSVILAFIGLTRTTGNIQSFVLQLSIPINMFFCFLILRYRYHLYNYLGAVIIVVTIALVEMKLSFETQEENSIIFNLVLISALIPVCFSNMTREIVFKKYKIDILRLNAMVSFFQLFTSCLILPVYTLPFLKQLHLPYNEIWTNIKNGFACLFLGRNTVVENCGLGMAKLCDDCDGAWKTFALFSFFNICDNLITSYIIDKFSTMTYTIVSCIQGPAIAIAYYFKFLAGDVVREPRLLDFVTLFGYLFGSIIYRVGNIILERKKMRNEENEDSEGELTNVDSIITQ
The experiment in a line: P. falciparum H+-efflux assay (rate of DV alkalinisation after concanamycin A). The test is classed as cell-based. The conditions noted are these: C2GC03; for Effect on rate of DV alkalinisation / H+ leak (in words): test solute 10 μM.

The next test concerns PfCRT. The experiment in a line: Test of solutes as potential co-substrates for influx of VF-6 via PfCRT into the oocyte. The test is classed as cell-based, Plasmodium falciparum. Also on record: key: X: Compounds that have been tested as potential co-substrates but are not required for influx of VF-6 via PfCRT into the oocyte. The settings on record: X = tested.
In a further test the target is PfCRT^Dd2 (Plasmodium falciparum, UniProt Q9N623, A220S/I356T/K76T/M74I/N326S/N75E/Q271E/R371I). The experiment in a line: cell-based. The conditions noted are these: Cis-inhibition IC50 of [3H]VF-6 transport, PfCRTDd2, drug on same side as [3H]VF-6; mean ± SEM, n = 5; SEM.
In another test the target is PfCRT^Ecu1110 (Plasmodium falciparum, UniProt Q9N623, A220S/I356L/K76T/N326D). Description: cell-based. The conditions noted are these: Cis-inhibition IC50 of [3H]VF-6 transport, PfCRTEcu1110, drug on same side as [3H]VF-6; mean ± SEM, n = 5; SEM.
In a further test the target is PfCRT^3D7 (Plasmodium falciparum, UniProt Q8IBZ9). Description: cell-based. The settings on record: for Trans effect on [3H]VF-6 transport via PfCRT (in words): all three PfCRT isoforms (3D7, Ecu1110, Dd2).
Test [2] relates to C4^Dd2 versus C2^GC03 infected erythrocytes. Description: Peptidomic analysis, peptide levels in C4^Dd2 relative to C2^GC03 parasites (LC-MS). The test is classed as cell-based, Plasmodium falciparum.
Where [3] appears, read: Peptides tested before peptidomic data was obtained.

Sequence of PfCRT^Ecu1110 (Q9N623 whole entry A220S/I356L/K76T/N326D, canonical isoform): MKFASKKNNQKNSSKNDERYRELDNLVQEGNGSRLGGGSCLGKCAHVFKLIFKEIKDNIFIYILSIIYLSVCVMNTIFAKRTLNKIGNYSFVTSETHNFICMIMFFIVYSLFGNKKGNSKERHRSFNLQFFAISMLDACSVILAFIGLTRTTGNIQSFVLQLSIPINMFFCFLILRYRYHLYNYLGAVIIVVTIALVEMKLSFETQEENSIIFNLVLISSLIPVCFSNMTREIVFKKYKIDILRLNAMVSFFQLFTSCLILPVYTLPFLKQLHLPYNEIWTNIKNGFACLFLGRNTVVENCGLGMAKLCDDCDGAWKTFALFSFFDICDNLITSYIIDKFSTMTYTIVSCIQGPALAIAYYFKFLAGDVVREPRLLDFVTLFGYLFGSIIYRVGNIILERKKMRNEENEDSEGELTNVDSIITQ
Sequence of PfCRT^Dd2 (Q9N623 whole entry A220S/I356T/K76T/M74I/N326S/N75E/Q271E/R371I): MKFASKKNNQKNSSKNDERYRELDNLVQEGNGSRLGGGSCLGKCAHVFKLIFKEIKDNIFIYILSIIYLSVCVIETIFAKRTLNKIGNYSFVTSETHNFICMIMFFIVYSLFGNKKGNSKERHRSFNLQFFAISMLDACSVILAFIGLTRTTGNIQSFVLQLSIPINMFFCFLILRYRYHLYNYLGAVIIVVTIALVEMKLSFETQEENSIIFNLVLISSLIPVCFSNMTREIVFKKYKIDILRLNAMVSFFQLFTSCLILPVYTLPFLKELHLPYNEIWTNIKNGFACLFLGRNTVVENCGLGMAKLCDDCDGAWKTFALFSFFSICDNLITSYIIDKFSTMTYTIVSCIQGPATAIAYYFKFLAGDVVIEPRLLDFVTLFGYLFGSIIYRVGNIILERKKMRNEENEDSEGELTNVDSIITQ

As to `N[C@@H](Cc1c[nH]cn1)C(=O)O` [L-histidine], the “Effect on rate of DV alkalinisation / H+ leak (in words)” value in test [1] is recorded as “without effect”. The “Tested as potential co-substrate but not required for influx of VF-6 via PfCRT into the oocyte” value with PfCRT is “X”.

As usually defined, the IC50 is the concentration that inhibits the measured activity by half. As to `CC(C)(C)NC(=O)[C@@H]1C[C@@H]2CCCC[C@@H]2CN1C[C@@H](O)[C@H](Cc1ccccc1)NC(=O)[C@H](CC(N)=O)NC(=O)c1ccc2ccccc2n1` [Saquinavir, saquinavir, reference compound], the IC50 on PfCRT^Dd2 was determined as 89 ± 3.8 µM; against PfCRT^Ecu1110, 74 ± 3.9 µM; on PfCRT^3D7 (drug on same side as [3H]VF-6, mean ± SEM, n = 5, SEM, read-out: Cis-inhibition IC50 of [3H]VF-6 transport, PfCRT3D7), 50 ± 2.3 µM. The “Trans effect on [3H]VF-6 transport via PfCRT (in words)” value at PfCRT^3D7 is recorded as “trans-stimulated”; at PfCRT^3D7 (listed as SQV) it was “Trans-stimulates”. Also, the “Maximum rate of peptide mimic-induced DV alkalinization” value in test [1] (mean ± SEM, n = 5, SEM) came out at 0.039 ±0.002 fluorescence ratio/s. Moreover, the “Effect on rate of DV alkalinisation / H+ leak (in words)” value in test [1] is recorded as “increased the rate of DV alkalinisation”.

DPVN [DN-4]: in test [2] (Peptides tested after peptidomic data was obtained), the “Assignment as substrate or not a substrate based on accumulation ratios from peptidomic data” value is on record as “substrate”.

For the molecule PENF [PEF-4], in test [2] (setting [3]), the “Assignment as substrate or not a substrate based on accumulation ratios from peptidomic data” value is reported as “substrate”.

Take PHFD [PD-4]: the “Assignment as substrate or not a substrate based on accumulation ratios from peptidomic data” value in test [2] (setting [3]) is reported as “substrate”.
